Tested on: Corynaebacterium xerosis
Assay: In vitro deodorant activity and durability test (CFU counting in culture vials)
Format: cell-based
Conditions: for Number of CFU/ml at t + 24 h / Number of CFU/ml at t + 48 h: 37° C.
Protocol: The test is carried out in vitro.
The compound 1 and the benzyl-4-benzoyloxybenzoate (reference compound described in the international patent application WO 91/07165) are both 10% diluted in benzylbenzoate, and incorporated in a specific culture medium at the moment of distribution in 50 ml vials.
The composition of the vials is characterized as follows: • Vial No. 1 • Brain Heart Infusion (medium)+0.5% Tween 40 • Compound 1 or benzyl-4-benzoyloxybenzoate—0.25% • Enzyme (Lipozyme® CALB, Novozymes)—2% • Bacteria (Corynaebacterium xerosis)—about 10^6 CFU/ml • Vial No. 2 • Brain Heart Infusion (medium)+0.5% Tween 40 • Compound 1 or benzyl-4-benzoyloxybenzoate—0.25% • Bacteria (Corynaebacterium xerosis)—about 10^6 CFU/ml • Vial No. 3 • Brain Heart Infusion (medium)+0.5% Tween 40 • Compound 1 or benzyl-4-benzoyloxybenzoate—0.25% • Enzyme (Lipozyme® CALB, Novozymes)—2%
Afterwards, the vials are incubated under stirring at 37° C. for 48 hours.
After 24 hours, a collection is performed, and 100 μl of a dilution to 1/1000th are spread out on gelose. Counting of the number of CFU (Colony Forming Units) is performed.
It is the comparison of the ratios between the amount of CFU/ml at a time t for the product+enzyme and the product alone which allows assessing the inhibiting activity of the product.

[1] = Vial 1: product 0.25% + enzyme (Lipozyme CALB) 2% + bacteria, Brain Heart Infusion + 0.5% Tween 40
[2] = Vial 2: product 0.25% + bacteria, no enzyme, Brain Heart Infusion + 0.5% Tween 40
[3] = Vial 3: product 0.25% + enzyme 2%, no bacteria added

SMILES	Number of CFU/ml at t + 24 h [1]	Number of CFU/ml at t + 48 h [1]	Number of CFU/ml at t + 24 h [2]	Number of CFU/ml at t + 48 h [2]	Number of CFU/ml at t + 24 h [3] [CFU/ml]	Number of CFU/ml at t + 48 h [3] [CFU/ml]	deodorant activity compared with benzyl-4-benzoyloxybenzoate (after 24 hours)	deodorant activity relative to the benzyl-4-benzoyloxybenzoate (after 48 hours)
O=C(OCc1ccccc1)c1ccc(OC(=O)c2ccc(Oc3ccccc3)cc2)cc1 [Compound 1, Benzyl[4-(4-Phenoxy)Benzoyloxy]Benzoate]	10^7 CFU/ml	36000 ^ CFU/ml	10^8 CFU/ml	3.2 × 10^6 CFU/ml	0	0	comparable	significantly higher
O=C(OCc1ccccc1)c1ccc(OC(=O)c2ccccc2)cc1 [benzyl-4-benzoyloxybenzoate, reference compound]	2.7 × 10^6 CFU/ml	10^8 CFU/ml	10^8 CFU/ml	10^9 CFU/ml	0	0		

Reference: US9873657B2, “Derivatives of benzyl benzoate” (ROBERTET S.A., priority 2014, dated 2018)
